From patent publication US6358984B1, “2,4-dioxopyrrolidine and 2,4-dioxotetrahydrofuran derivatives and medicines containing the same as the active ingredient” (Lead Chemical Co., Ltd., priority 1996, dated 2002)
Where two headings read alike, the source gives them in different places.

Columns and labels:
[1] = tested on: aortae of guinea pigs; assay: Inhibition of vascular contraction caused by angiotensin II using pieces of the aortae of guinea pigs; assay type: cell-based; settings: Cavia porcellus; guinea pig chest aorta, contraction induced by angiotensin II; read-out: Vascular contraction inhibition effect IC50
Procedure: Male Hartly guinea pigs (350 to 400 g) were contused on the head and sacrificed by allowing their blood to discharge from the arteria carotis communis. Immediately after death, the chest aorta was removed. A spiral sample of width 2 to 3 mm and length 20 to 25 mm was cut from the aorta, and was suspended in 4.5 ml of Krebs-Henseleit (K-H) solution (120 mM NaCl, 4.7 mM KCl, […], 1.2 mM KH2PO4, 2.5 mM CaCl2, 25 mM NaHCO3, and 10 mM glucose) in a Magnus vessel. The K-H solution in the Magnus vessel was maintained at 37° C., and a mixture gas of 95% O2 and 5% CO2 was continuously bubbled through the solution. First, 1 g of initial tension was applied to the sample, which was then left to stand rest for about 30 minutes, and 45 μl of 4M KCl solution was added to the solution to induce contraction. After contraction had stabilized, a washing operation was performed to replace the K-H solution. Then, after the sample was left to stand for 30 minutes, 45 μl of solvent DMSO was added to incubate the sample for 15 minutes, and 45 μl of angiotensin II solution (3×10^−8M) was added to induce contraction. This operation was repeated three times and 100% contraction was used as the average. Subsequently, the sample was stabilized by washing. Then, a 45 μl sample of each test compound prepared for each concentration (3×10^−5M to 10^−7M) using DMSO as a solvent was used to observe the inhibition effect of angiotensin II on vascular contraction by performing the same operation as described above. The contraction reaction was recorded on a recorder (RTA-1100, Japan Photoelectronics) via an equi-scale pressure transducer (TB-651T, Japan Photoelectronics). The angiotensin II inhibition effects of the test compounds were evaluated using the IC50 value.

[2] = target: T1, angiotensin II receptor (Oryctolagus cuniculus, UniProt P34976); assay: Binding inhibition of 3H labeled angiotensin II to angiotensin II receptor membrane fraction; parameters: species or system rabbit; settings: for IC50: rabbit adrenal gland membrane, 3H labeled angiotensin II 10^-9M, read-out: Receptor binding inhibition effect IC50
T1 construct: fraction of angiotensin II receptor membrane ([…]) prepared from rabbit adrenal gland; from tissue; host or cells: rabbit adrenal gland membrane fraction
T1 sequence (P34976 1-359): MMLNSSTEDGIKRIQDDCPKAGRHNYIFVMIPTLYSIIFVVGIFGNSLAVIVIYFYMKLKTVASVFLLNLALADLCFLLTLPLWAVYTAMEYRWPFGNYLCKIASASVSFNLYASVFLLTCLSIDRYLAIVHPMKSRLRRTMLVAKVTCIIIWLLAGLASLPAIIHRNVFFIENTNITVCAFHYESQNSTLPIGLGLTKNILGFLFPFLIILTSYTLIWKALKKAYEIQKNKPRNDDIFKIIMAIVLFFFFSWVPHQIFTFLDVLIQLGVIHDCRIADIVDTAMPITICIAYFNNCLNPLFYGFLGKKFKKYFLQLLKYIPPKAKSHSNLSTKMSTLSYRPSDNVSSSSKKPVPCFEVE
Procedure: The method of Cox et. al (Biochemical Pharmacology 33, 4057-4064 (1984) was modified to conduct angiotensin II receptor binding inhibition experiments. The present compounds (10^−5M to 10^−9M) and ^3H labeled angiotensin II (10^−9M) were added to a fraction of angiotensin II receptor membrane ([…]) prepared from rabbit adrenal gland and were allowed to react in a 20 mM Tris HCl buffer (pH: 7.0) containing 120 mM NaCl, 5 mM EDTA, 0.1 mM PMSF, and 0.2% BSA at 30° C. for 20 minutes so that the final volume was 540 μl. Then, the reaction mixture was quickly passed through a filter (whatman GF/B), and the filter was then rinsed three times in 4 ml of the buffer cooled in ice. Then, the radioactivity of receptor binding ^3H labeled angiotensin II captured on the filter was measured using a liquid scintillation counter. The angiotensin II receptor binding inhibition activity of the present compounds was evaluated based on the concentration (IC 50) required to replace 50% of the total amount of specifically binding ^3H labeled angiotensin II.

[3] = tested on: hypertension caused by angiotensin II; assay: Inhibition effect in the hypertension caused by angiotensin II using rats; assay type: in vivo, rat; settings: Rattus norvegicus, iv, i. v., male SD rats, angiotensin II 100 ng/kg
Procedure: Male SD rats (age; 11 weeks; 310 to 330 g) Were used, and indwelling cannula were placed in the femoral aorta and the vena cava, under anesthesia with inactin. The arterial cannula was connected to a pressure transducer to record the blood pressure via a carrier amplifier (AP-601G Japan Photoelectronics) using a polygraph system (RM-6000 Japan Photoelectronics). Prior to tests using the test compounds, 100 ng/kg-equivalent angiotensin II (50 μl of serum solution from the rat) was administered using a regular-pulse cannula to check the hypertensive action. Then, 30 minutes later, a 1 mg/kg-equivalent test compound (50 μl of serum solution from the rat) was administered using the regular-pulse cannula, and similar administration of angiotensin II was performed 5 and 60 minutes later to check the corresponding hypertensive action. The hypertensive effect resulting from the administration of only angiotensin II was taken as a reference value of 100% to determine the antihypertensive rates of the test compounds.

[4] = tested on: male ICR mice; assay: Acute toxicity tests using male ICR mice; assay type: in vivo; settings: 250, 500 and 1,000 mg/kg orally, dissected after 21 days
Procedure: Acute toxicity tests of the compounds 1d and 2d described in table 1 were carried out. […] As a result, in each administration group, no mouse died whichever compound had been administered.

[5] = 5 min, 5 minutes after administration, read-out: Inhibition effect in the hypertension by angiotensin II, 5 minutes after administration
[6] = 1 h, 60 minutes after administration, read-out: Inhibition effect in the hypertension by angiotensin II, 60 minutes after administration

SMILES | IC50 [1] [nM] | Angiotensin II receptor antagonism (in words) [2] | IC50 [2] [nM] | inhibition in vivo at 1 mg/kg [3, 5] [%] | inhibition in vivo at 1 mg/kg [3, 6] [%] | Findings on dissection at the end of the observation period [4] | melting point [°C]
CCCCc1nc(CCCC)n(Cc2ccc(-c3ccccc3/C=C3\NC(=O)CC3=O)cc2)n1 [Compound 1d, 3,5-Dibutyl-1-[2′-[(2,4-dioxopyrrolidine-5(Z)-ylidene)methyl]biphenyl-4-yl]methyl-1H-1,2,4-triazole] | 1400 | distinct angiotensin II receptor antagonism | 130 | ≥ 70 | 30 to 70 | no abnormality | 
CCCCc1nc(C2CC2)nn1Cc1ccc(-c2ccccc2/C=C2\OC(=O)C=C2O)cc1 [Compound 2c, 5-Butyl-3-cyclopropyl-1-[2′-[(4-hydroxy-2(5H)-furanone-5(Z)-ylidene)methyl]biphenyl-4-yl]methyl-1H-1,2,4-triazole] | > 300000 |  | 150 | 10 to 30 | < 10 |  | 168 to 170
CCCCc1nc(CCCC)n(Cc2ccc(-c3ccccc3/C=C3\OC(=O)C=C3O)cc2)n1 [Compound 2d] | 4500 | distinct angiotensin II receptor antagonism | 46 | 30 to 70 | 10 to 30 | no abnormality | 
CCCCc1nc(-c2ccccc2)nn1Cc1ccc(-c2ccccc2/C=C2\OC(=O)C=C2O)cc1 [Compound 2e, 5-Butyl-3-phenyl-1-[2′-[(4-hydroxy-2(5H)-furanone-5(Z)-ylidene)methyl]biphenyl-4-yl]methyl-1H-1,2,4-triazole] | 154000 |  | 180 | 30 to 70 | 30 to 70 |  | 188 to 189
CCCCc1nc(CCc2ccccc2)nn1Cc1ccc(-c2ccccc2/C=C2\OC(=O)C=C2O)cc1 [Compound 2f, 5-Butyl-3-(2-phenylethyl)-1-[2′-[(4-hydroxy-2(5H)-furanone-5(Z)-ylidene)methyl]biphenyl-4-yl]methyl-1H-1,2,4-triazole] | > 300000 |  | 11 | 30 to 70 | < 10 |  | 184 to 185
CCCCc1nc(-c2ccco2)nn1Cc1ccc(-c2ccccc2/C=C2\OC(=O)C=C2O)cc1 [Compound 2j, 5-Butyl-(furan-2-yl)-1-[2′-[(4-hydroxy-2(5H)-furanone-5(Z)-ylidene)methyl]biphenyl-4-yl]methyl-1H-1,2,4-triazole] | > 300000 |  | 280 | < 10 | < 10 |  | 172 to 173
CCCCc1nc(-c2cccs2)nn1Cc1ccc(-c2ccccc2/C=C2\OC(=O)C=C2O)cc1 [Compound 2k, 5-Butyl-3-(thiophene-2-yl)-1-[2′-[(4-hydroxy-2(5H)-furanone-5(Z)-ylidene)methyl]biphenyl-4-yl]methyl-1H-1,2,4-triazole] | > 300000 |  | 310 | 10 to 30 | < 10 |  | 179 to 180
